{"source": "patent US20260306421A1", "about": "“SYSTEMS AND METHODS FOR TRANSDERMAN PATCH DELIVERY” (VITAMAX PATCH WHOLESALER LLC, priority 2022, published 2026)", "key": {"[1]": {"assay": "Chemical stability of cholecalciferol and cholecalciferol phosphate disodium in donor, extraction and receiver fluids", "format": "physicochemical", "details": "for chemical stability: 37° C., 24 h", "description": "To assess the chemical stability of the test agents in the liquids in which they were to be dissolved for the skin permeation experiments, 1 mg/mL solutions of cholecalciferol and cholecalciferol phosphate disodium in propylene glycol (PG) were prepared and incubated at 37° C. for 24 h. In addition, 100 μg/mL cholecalciferol in 50:50 PG:ethanol mixture, 100 μg/mL cholecalciferol phosphate disodium in 90:10 methanol:water mixture as well as and in 50% PG 40% Methanol: 10% water pH 3.2 (90:10) were also incubated at 37° C. for 24 hours."}, "[2]": {"assay": "Cholecalciferol phosphate disodium patch release", "format": "in vitro ADME", "details": "control solution in PG, 24 h", "description": "The patch was produced by mixing 82.9 μL of the adhesive, 1.92 μL of PG and the 4 mg of cholecalciferol phosphate disodium (Table 39). The patch formulation was cast into an in-house rectangular tray measuring 10 by 10 cm. The mixture was left to cure for 3-4 h. The laminate was then added to the adhesive and circles of 34 mm diameter were cut using a dye cutting machine and the release of the cholecalciferol was assessed using the Franz diffusion cells fitted with a nylon membrane over 24 h. A nylon membrane (0.20 μm) was glued to the receiver chamber and no donor chamber was employed to allow the patch to be placed directly on the surface of the nylon membrane. A cholecalciferol phosphate disodium saturated PG solution was used as a comparator with the standard Franz cell set-up previously described. The receiver fluid was 80% PG 20% water for both release testing from the solution and the patch."}}, "data": [{"substance": "cholecalciferol phosphate disodium", "values": [{"measurement": "chemical stability", "setting": "[1]; PG", "value": "86±5.7", "unit": "%"}, {"measurement": "chemical stability (in words)", "setting": "[1]; conclusions", "value": "indication of chemical instability"}, {"measurement": "chemical stability", "setting": "[1]; extraction fluid 90:10 methanol:water", "value": "98±1.6", "unit": "%"}, {"measurement": "chemical stability", "setting": "[1]; receiver fluid 50:50 PG:mobile phase (90:10 methanol:water pH 3.2)", "value": "71±2.7", "unit": "%"}, {"measurement": "active release from PG solution, percent of applied active", "setting": "[2]", "value": 17, "unit": "%"}, {"measurement": "active release from PG solution", "setting": "[2]; nylon membrane", "value": "512±17", "unit": "μg/cm^2"}]}]}
